Source: patent publication US20080090805A1, “CB-1 MODULATING COMPOUNDS AND THEIR USE” (ACADIA PHARMACEUTICALS INC., priority 2005, published 2008)

Target: native CB1 receptors (Rattus norvegicus, UniProt P20272)
Experiment: CB1 receptor rat binding assay ([3H]SR141716A, rat brain membranes)
Conditions: rat brain membranes, [3H]SR141716A; for Ki: read-out: Binding rat pKi (converted)

Sequence of native CB1 receptors (P20272 whole entry): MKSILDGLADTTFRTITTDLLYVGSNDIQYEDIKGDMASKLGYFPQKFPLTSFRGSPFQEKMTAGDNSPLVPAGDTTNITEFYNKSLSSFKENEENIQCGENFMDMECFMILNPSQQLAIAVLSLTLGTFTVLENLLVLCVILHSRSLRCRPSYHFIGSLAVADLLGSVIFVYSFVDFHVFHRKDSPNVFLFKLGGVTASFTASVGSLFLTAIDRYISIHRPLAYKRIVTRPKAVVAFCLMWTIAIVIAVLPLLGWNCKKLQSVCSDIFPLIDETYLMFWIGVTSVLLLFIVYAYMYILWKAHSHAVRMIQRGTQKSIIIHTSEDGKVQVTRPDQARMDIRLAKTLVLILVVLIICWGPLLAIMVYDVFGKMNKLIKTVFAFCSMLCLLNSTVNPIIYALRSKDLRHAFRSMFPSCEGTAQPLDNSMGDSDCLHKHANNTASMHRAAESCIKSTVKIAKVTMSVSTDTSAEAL

| Compound | Binding rat Inh % [%] | Ki [nM] |
| --- | --- | --- |
| C[C@@H]1CCC[C@H](C)N1NC(=O)c1ccc2c(c1)N=C(c1ccc(Cl)cc1)c1ccccc1S2 [drawing 1396] | 94 | 39.8 |
| O=C(NN1CCCCC1)c1ccc2c(c1)N=C(N1CCCCC1)c1ccccc1S2 [drawing 1397] | – | 39.8 |
| O=C(NCCc1ccccn1)c1ccc2c(c1)N=C(c1ccc(Cl)cc1F)c1ccccc1S2 [drawing 1398] | 74 | 39.8 |
| O=C(NC1CCCC1)c1ccc2c(c1)N=C(c1ccc(Cl)c(Cl)c1)c1ccccc1S2 [drawing 1399] | 78 | 5.01 |
| Cc1ccc(CNC(=O)c2ccc3c(c2)N=C(c2sccc2C)c2ccccc2S3)o1 [drawing 1400] | 102 | 6.31 |
| O=C(NCc1cccnc1)c1ccc2c(c1)N=C(c1ccc(Cl)c(Cl)c1)c1ccccc1S2 [drawing 1401] | 102 | 6.31 |
| O=C(NCc1ccco1)c1ccc2c(c1)N=C(c1ccc(Cl)c(Cl)c1)c1ccccc1S2 [drawing 1402] | 84 | 6.31 |
| CCCNC(=O)c1ccc2c(c1)N=C(c1ccc(OC)cc1)c1ccccc1S2 [drawing 1403] | 80 | 39.8 |
| CCOCCNC(=O)c1ccc2c(c1)N=C(c1ccc(Br)cc1)c1ccccc1S2 [drawing 1404] | 81 | 39.8 |
| CCCCNS(=O)(=O)c1ccc2c(c1)N=C(c1ccc(Cl)cc1)c1ccccc1S2 [drawing 1405] | 92 | 39.8 |
| CCCCNC(=O)c1ccc2c(c1)N=C(c1ccc(Cl)cc1Cl)c1ccccc1S2 [drawing 1406] | 98 | 39.8 |
| O=C(NCCc1cccnc1)c1ccc2c(c1)N=C(c1ccc(Cl)c(Cl)c1)c1ccccc1S2 [drawing 1407] | 103 | 6.31 |
| O=C(NCc1cccc(Cl)c1)c1ccc2c(c1)N=C(c1ccc(F)cc1)c1ccccc1S2(=O)=O [drawing 1408] | – | 6.31 |
| O=C(NCc1ccccc1)c1ccc2c(c1)N=C(c1ccc(F)cc1)c1ccccc1S2 [drawing 1409] | – | 6.31 |
| CCCCNC(=O)c1cc2c(cc1O)Sc1ccccc1C(c1ccc(Cl)cc1)=N2 [drawing 1410] | 103 | 6.31 |
| O=C(NCCc1ccccn1)c1ccc2c(c1)N=C(c1ccc(F)cc1)c1ccccc1S2 [drawing 1411] | 85 | 39.8 |
| COc1ccc(C2=Nc3cc(C(=O)NCc4ccncc4)ccc3Sc3ccccc32)cc1 [drawing 1412] | 67 | 39.8 |
| O=C(NCc1ccccc1Cl)c1ccc2c(c1)N=C(c1ccccc1F)c1ccccc1S2 [drawing 1413] | – | 39.8 |
| O=C(NC1CCC(F)(F)CC1)c1ccc2c(c1)N=C(c1ccccn1)c1ccccc1S2 [drawing 1414] | 73 | 39.8 |
| O=C(NCc1ccccc1Cl)c1ccc2c(c1)N=C(c1cccc(Cl)c1)c1ccccc1S2 [drawing 1415] | – | 6.31 |
| Cc1ccc(CNC(=O)c2ccc3c(c2)N=C(c2ccc(Cl)cc2)c2ccccc2S3)o1 [drawing 1416] | 88 | 6.31 |

| Compound | Binding rat Inh % [%] | Ki [nM] |
| --- | --- | --- |
| CCCCNC(=O)c1ccc2c(c1)N=C(C1CCCCC1)c1ccccc1S2 [drawing 1417] | – | 6.31 |
| O=C(NCCC(F)(F)F)c1ccc2c(c1)N=C(c1ccc(F)cc1)c1ccccc1S2 [drawing 1418] | 105 | 6.31 |
| O=C(NCc1ccccn1)c1ccc2c(c1)N=C(c1cccc(Br)c1)c1ccccc1S2 [drawing 1419] | 79 | 39.8 |
| O=C(NCc1ccc(Cl)cc1Cl)c1ccc2c(c1)N=C(c1ccc(Cl)cc1)c1ccccc1S2 [drawing 1421] | – | 39.8 |
| CC(NC(=O)c1ccc2c(c1)N=C(c1ccccc1F)c1ccccc1S2)c1ccccc1 (stereo not drawn) [drawing 1422] | – | 39.8 |
| O=C(NN1CCCCC1)c1ccc2c(c1)N=C(c1ccc(Br)cc1)c1ccccc1S2 [drawing 1423] | 89 | 6.31 |
| O=C(NN1CCCCC1)c1ccc2c(c1)N=C(c1ccc(Cl)cc1)c1ccccc1S2 [drawing 1424] | 60 | 6.31 |
| Cc1cccc(C2=Nc3cc(C(=O)NC4CCC(F)(F)CC4)ccc3Sc3ccccc32)n1 [drawing 1425] | 90 | 6.31 |
| CCCCNC(=O)c1ccc2c(c1)N=C(c1ccc(Cl)s1)c1cc(Cl)ccc1S2 [drawing 1426] | 85 | 6.31 |
| CCCC1=Nc2cc(C(=O)NCc3ccccc3Cl)ccc2Sc2ccccc21 [drawing 1427] | – | 39.8 |
| O=C(NCc1cccc(Cl)c1)c1ccc2c(c1)N=C(N1CCCCC1)c1ccccc1S2(=O)=O [drawing 1428] | – | 50.1 |
| CC(C)NC(=O)c1ccc2c(c1)N=C(c1ccc(F)cc1)c1ccccc1S2 [drawing 1429] | 80 | 50.1 |
| Cc1csc(CNC(=O)c2ccc3c(c2)N=C(c2ccc(F)cc2)c2ccccc2S3)c1 [drawing 1430] | 81 | 50.1 |
| CC(NC(=O)c1ccc2c(c1)N=C(C1CCCCC1)c1ccccc1S2)c1ccccc1 (stereo not drawn) [drawing 1431] | – | 6.31 |
| COc1ccc(C2=Nc3cc(C(=O)NN4[C@H](C)CCC[C@@H]4C)ccc3Sc3ccccc32)cc1 [drawing 1432] | 88 | 6.31 |
| O=C(NCCCc1ccccc1)c1ccc2c(c1)N=C(c1ccc(Cl)cc1)c1ccccc1S2 [drawing 1434] | – | 6.31 |
| O=C(NCc1ccco1)c1ccc2c(c1)N=C(c1ccccc1F)c1ccccc1S2 [drawing 1435] | 83 | 50.1 |
| CCCC1=Nc2cc(C(=O)NC3CCC(C)CC3)ccc2Sc2ccccc21 (stereo not drawn) [drawing 1437] | – | 50.1 |
| O=C(NCCC(F)(F)F)c1ccc2c(c1)N=C(c1ccsc1)c1ccccc1S2 [drawing 1442] | 88 | 7.94 |
| O=C(NCc1ccncc1)c1ccc2c(c1)N=C(c1ccc(Br)cc1)c1ccccc1S2 [drawing 1453] | 80 | 50.1 |

The remaining lines, values ahead:

| Binding rat Inh % [%] | Ki [nM] | Compound |
| --- | --- | --- |
| 112 | 6.31 | O=C(NN1CCCCCC1)c1ccc2c(c1)N=C(c1ccc(F)cc1)c1ccccc1S2 [drawing 1433] |
| 89 | 50.1 | O=C(NC1CCCC1)c1ccc2c(c1)N=C(c1ccc(Cl)cc1)c1ccccc1S2 [drawing 1436] |
| 60 | 50.1 | COc1ccc(C2=Nc3cc(C(=O)NCc4cccnc4)ccc3Sc3ccccc32)cc1 [drawing 1438] |
| – | 6.31 | CCN(CCNC(=O)c1ccc2c(c1)N=C(N1CCCCC1)c1ccccc1S2)c1ccccc1 [drawing 1439] |
| – | 7.94 | O=C(NCCc1ccc(Cl)cc1)c1ccc2c(c1)N=C(c1ccccc1)c1ccccc1S2 [drawing 1440] |
| 90 | 7.94 | Cc1ccc(CNC(=O)c2ccc3c(c2)N=C(c2ccc(Cl)cc2F)c2ccccc2S3)o1 [drawing 1441] |
| 68 | 50.1 | O=C(NCc1ccncc1)c1ccc2c(c1)N=C(c1ccc(F)cc1)c1ccccc1S2 [drawing 1443] |
| – | 50.1 | O=C(NCCc1ccccc1)c1ccc2c(c1)N=C(c1ccccc1F)c1ccccc1S2 [drawing 1444] |
| 85 | 50.1 | CC(C)NC(=O)c1ccc2c(c1)N=C(c1ccc(Cl)s1)c1ccccc1S2 [drawing 1445] |
| 63 | 50.1 | CCOCCNC(=O)c1ccc2c(c1)N=C(c1ccc(F)cc1)c1ccccc1S2 [drawing 1446] |
| 108 | 7.94 | CCCCNC(=O)c1ccc2c(c1)N=C(c1cccc(Cl)c1)c1cc(F)ccc1S2 [drawing 1447] |
| 85 | 7.94 | O=C(NCc1ccco1)c1ccc2c(c1)N=C(c1cccc(Cl)c1)c1ccccc1S2 [drawing 1448] |
| – | 7.94 | O=C(NCc1cccc(Cl)c1)c1ccc2c(c1)N=C(c1ccccc1)c1ccccc1S2 [drawing 1449] |
| – | 7.94 | O=C(NCCCc1ccccc1)c1ccc2c(c1)N=C(c1ccccc1)c1ccccc1S2 [drawing 1450] |
| 72 | 50.1 | O=C(Cc1ccccc1)NNC(=O)c1ccc2c(c1)N=C(c1ccc(Cl)cc1)c1ccccc1S2 [drawing 1451] |
| 114 | 50.1 | O=C(NCCc1ccccn1)c1ccc2c(c1)N=C(c1ccc(Cl)c(Cl)c1)c1ccccc1S2 [drawing 1452] |
| 72 | 50.1 | NS(=O)(=O)c1ccc(CNC(=O)c2ccc3c(c2)N=C(c2ccc(F)cc2)c2ccccc2S3)cc1 [drawing 1454] |
| – | 7.94 | CC(CNC(=O)c1ccc2c(c1)N=C(N1CCCCC1)c1ccccc1S2)c1ccccc1 (stereo not drawn) [drawing 1455] |
| – | 7.94 | O=C(NCc1cccc(Cl)c1)c1ccc2c(c1)N=C(c1ccc(Cl)cc1)c1cc(F)ccc1S2 [drawing 1456] |
| – | 7.94 | O=C(NCCc1cccc(Cl)c1)c1ccc2c(c1)N=C(c1ccccc1)c1ccccc1S2 [drawing 1457] |
| 90 | 7.94 | COc1cccc(C2=Nc3cc(C(=O)NCc4ccc(C)o4)ccc3Sc3ccccc32)n1 [drawing 1458] |
| – | 50.1 | O=C(NCCc1cccc(Cl)c1)c1ccc2c(c1)N=C(c1ccccc1F)c1ccccc1S2 [drawing 1459] |
| 61 | 50.1 | O=C(NCCc1ccccn1)c1ccc2c(c1)N=C(c1ccc(Br)cc1)c1ccccc1S2 [drawing 1460] |
| 80 | 50.1 | COCCNC(=O)c1ccc2c(c1)N=C(c1cccc(Cl)c1)c1ccccc1S2 [drawing 1461] |
| – | 50.1 | O=C(NN1CCCCC1)c1ccc2c(c1)N=C(c1ccccc1)c1ccccc1S2 [drawing 1462] |
| 82 | 7.94 | O=C(NN1CCCCCC1)c1ccc2c(c1)N=C(c1ccc(Cl)cc1)c1ccccc1S2 [drawing 1463] |
| 78 | 7.94 | CCCCNC(=O)c1ccc2c(c1)N=C(c1ccc(Cl)cc1)c1cc(Cl)ccc1S2 [drawing 1464] |
| – | 7.94 | CC(NC(=O)c1ccc2c(c1)N=C(c1cccc(Cl)c1)c1ccccc1S2)c1ccccc1 (stereo not drawn) [drawing 1465] |
